Laboratory results reported in patent publication US20160316790A1, “BETA-HINOKITIOL DERIVATIVES AND APPLICATIONS THEREOF IN PREPARATION OF ANIMAL ANTIBACTERIAL AGENTS AND ANTIBACTERIAL GROWTH PROMOTERS USED IN FEED” (GUANGZHOU INSIGHTER BIOTECHNOLOGY CO., LTD., priority 2013, published 2016).
≈ marks a conversion by molar mass, not a printed value. Where “and” joins values, the source holds several entries; their conditions need not be identical. Equal values may be shown once. Read-outs that look alike come from different tables or passages of the source.

Legend:
haemophilus parasuis = assay: Minimum inhibitory concentration in vitro, doubling dilutions; assay type: cell-based; settings: Glaesserella parasuis
clostridium perfringens = assay: microbe, parasite or virus in culture; assay type: cell-based
escherichia coli = assay: Minimum inhibitory concentration in vitro, doubling dilutions; assay type: cell-based
salmonellas = assay: as above; assay type: cell-based
vibrio = assay: as above; assay type: cell-based
streptococcus = assay: as above; assay type: cell-based
[1] = tested on: major animal pathogenic bacteria; assay: In vitro antibacterial activity (MICs), overall statement; assay type: cell-based; settings: Tables 1 to 4
[2] = Application effect test of β-hinokitiol derivatives in broiler feeds; assay type: in vivo, fast-grown type yellow feather broilers; settings: 14 days
Text: 598 fast-grown type yellow feather broilers (female) aged 30-days were divided into five groups according to table 5. […] During the test, the broilers ate food and drank water freely. The test lasted for 14 days. […] [table]

riemerella anatipestifer = assay: Minimum inhibitory concentration in vitro, doubling dilutions; assay type: cell-based
[3] = Effect of β-hinokitiol derivatives on diarrhea of weaned pigs; assay type: in vivo; settings: weaned pigs, 30 ppm in diet, 10 days
Text: 80 25-day-old weaned pigs were randomly divided into eight groups according to table 7, 10 pigs in each group. […] During the testing, the pigs ate food and drank water freely with temperature preservation. The test lasted for 10 days.

staphylococcus aureus = assay: Minimum inhibitory concentration in vitro, doubling dilutions; assay type: cell-based
[4] = read-out: Minimum inhibitory concentration (MIC), Haemophilus parasuis 2-3A
[5] = read-out: Minimum inhibitory concentration (MIC), Haemophilus parasuis S5A
[6] = read-out: Minimum inhibitory concentration (MIC), Clostridium JM1210B
[7] = read-out: Minimum inhibitory concentration (MIC), Clostridium JM1212A
[8] = read-out: Minimum inhibitory concentration (MIC), Eserichia coli HZ1308-1
[9] = read-out: Minimum inhibitory concentration (MIC), Eserichia coli SS1107A
[10] = strain FS1303B, read-out: Minimum inhibitory concentration (MIC), Salmonellas FS1303B
[11] = strain GD1303-3, read-out: Minimum inhibitory concentration (MIC), Salmonellas GD1303-3
[12] = read-out: Minimum inhibitory concentration (MIC), Vibrio VP3
[13] = read-out: Minimum inhibitory concentration (MIC), Vibrio VP5
[14] = strain KP1307-1, read-out: Minimum inhibitory concentration (MIC), Streptococcus KP1307-1
[15] = strain TS1205-2, read-out: Minimum inhibitory concentration (MIC), Streptococcus TS1205-2
[16] = strain 2-3A, read-out: Minimum inhibitory concentration (MIC), Haemophilus parasuis 2-3A
[17] = broilers, 40 ppm mixed with feed
[18] = read-out: Minimum inhibitory concentration (MIC), Streptococcus KP1307-1
[19] = read-out: Minimum inhibitory concentration (MIC), Riemerella anatipestifer SCAU03
[20] = strain WS, read-out: Minimum inhibitory concentration (MIC), Riemerella anatipestifer WS
[21] = strain SCAU03, read-out: Minimum inhibitory concentration (MIC), Riemerella anatipestifer SCAU03

Row | Structure (SMILES) | MIC (clostridium perfringens; [6]) | MIC (clostridium perfringens; [7]) | MIC (escherichia coli; [8]) | MIC (escherichia coli; [9]) | MIC (salmonellas; [10]) | MIC (salmonellas; [11]) | MIC (vibrio; [12]) | MIC (vibrio; [13]) | MIC (streptococcus; [14]) | MIC (streptococcus; [15]) | MIC (haemophilus parasuis; [16]) | MIC (riemerella anatipestifer; [20]) | further results
1 | O=c1cccc(CCCF)cc1O [IST_009_031, 4-(3-fluoropropyl)-2-hydroxycyclohepta-2,4,6-trienone] | 6.25 µg/mL (≈ 34.3 µM) | 6.25 µg/mL (≈ 34.3 µM) | 25 µg/mL (≈ 137 µM) | 100 µg/mL (≈ 549 µM) | 50 µg/mL (≈ 274 µM) | 50 µg/mL (≈ 274 µM) | – | – | – | – | – | – | MIC (haemophilus parasuis; [4]): 6.25 µg/mL (≈ 34.3 µM); MIC (haemophilus parasuis; [5]): 3.13 µg/mL (≈ 17.2 µM)
2 | O=c1cccc(Cc2ccc(Cl)cc2)cc1O [IST_009_025, 4-(4-chlorobenzyl)-2-hydroxycyclohepta-2,4,6-trienone] | – | – | – | – | – | – | > 100 µg/mL | > 100 µg/mL | 25 µg/mL (≈ 101 µM) | 25 µg/mL (≈ 101 µM) | – | – | –
3 | O=c1cccc(Cc2ccc(F)cc2)cc1O [IST_009_028, 4-(4-fluorobenzyl)-2-hydroxycyclohepta-2,4,6-trienone] | – | – | – | – | – | – | 100 µg/mL (≈ 434 µM) | 100 µg/mL (≈ 434 µM) | 25 µg/mL (≈ 109 µM) | 25 µg/mL (≈ 109 µM) | – | – | –
4 | CCCCCc1cccc(=O)c(O)c1 [IST_009_003, 2-hydroxy-4-pentylcyclohepta-2,4,6-trienone] | 6.25 µg/mL (≈ 32.5 µM) | 6.25 µg/mL (≈ 32.5 µM) | 6.25 µg/mL (≈ 32.5 µM) | 12.5 µg/mL (≈ 65 µM) | 6.25 µg/mL (≈ 32.5 µM) | 12.5 µg/mL (≈ 65 µM) | 50 µg/mL (≈ 260 µM) | 25 µg/mL (≈ 130 µM) | – | – | 0.2 µg/mL (≈ 1.04 µM) | 3.13 µg/mL (≈ 16.3 µM) | antibacterial activities compared with the lead compound IST_001_002 (in words) [1]: better than those of the lead compound IST_001_002; Average daily weight gain [2, 17]: 36.21 g/d * bird and 34.19 g/d * bird and 37.14 g/d * bird; Average weight gain [2, 17]: 502.05 g and 449.90 g and 534.50 g; Total consumption [2, 17]: 58.05 kg and 57.71 kg and 58.17 kg; feed conversion efficiency [2, 17]: 2.862 and 2.952 and 2.868; weight gain and feed conversion efficiency of the experimental broilers (in words) ([2]; in feed): could enhance the weight gain and the feed conversion efficiency; MIC (streptococcus; [18]): 12.5 µg/mL (≈ 65 µM); MIC (streptococcus; read-out: Minimum inhibitory concentration (MIC), Streptococcus TS1205-2): 12.5 µg/mL (≈ 65 µM); MIC (riemerella anatipestifer; [19]): 12.5 µg/mL (≈ 65 µM)
5 | CCc1cccc(=O)c(O)c1 [IST_009_018, 4-ethyl-2-hydroxycyclohepta-2,4,6-trienone] | 3.13 µg/mL (≈ 20.8 µM) | 3.13 µg/mL (≈ 20.8 µM) | 25 µg/mL (≈ 166 µM) | 50 µg/mL (≈ 333 µM) | 12.5 µg/mL (≈ 83.2 µM) | 25 µg/mL (≈ 166 µM) | 25 µg/mL (≈ 166 µM) | 25 µg/mL (≈ 166 µM) | – | > 100 µg/mL | – | 6.25 µg/mL (≈ 41.6 µM) | MIC (haemophilus parasuis; [4]): 3.13 µg/mL (≈ 20.8 µM); MIC (haemophilus parasuis; [5]): 1.56 µg/mL (≈ 10.4 µM); MIC (streptococcus; [18]): 12.5 µg/mL (≈ 83.2 µM); MIC (riemerella anatipestifer; [19]): 12.5 µg/mL (≈ 83.2 µM)
6 | CC(C)c1cccc(=O)c(O)c1 [IST_001_002, 2-hydroxy-4-isopropyl-1-cycloheptatrienone, reference compound] | 6.25 µg/mL (≈ 38.1 µM) | 12.5 µg/mL (≈ 76.1 µM) | 25 µg/mL (≈ 152 µM) | 25 µg/mL (≈ 152 µM) | 25 µg/mL (≈ 152 µM) | 25 µg/mL (≈ 152 µM) | 25 µg/mL (≈ 152 µM) | 25 µg/mL (≈ 152 µM) | 50 µg/mL (≈ 304 µM) | 50 µg/mL (≈ 304 µM) | 0.78 µg/mL (≈ 4.75 µM) | – | Average daily diarrhea rate [3]: 35% and 32%; MIC (riemerella anatipestifer; read-out: Minimum inhibitory concentration (MIC), Riemerella anatipestifer WS): 6.25 µg/mL (≈ 38.1 µM); MIC (riemerella anatipestifer; [21]): 25 µg/mL (≈ 152 µM); MIC (staphylococcus aureus; strain PNB14, read-out: Minimum inhibitory concentration (MIC), Staphylococcus aureus PNB14): 25 µg/mL (≈ 152 µM); MIC (staphylococcus aureus; strain SA10, read-out: Minimum inhibitory concentration (MIC), Staphylococcus aureus SA10): 25 µg/mL (≈ 152 µM)
7 | CCCCCCCCCCCCCCc1cccc(=O)c(O)c1 [IST_009_033, 2-hydroxy-4-tetradecylcyclohepta-2,4,6-trienone] | 50 µg/mL (≈ 157 µM) | 50 µg/mL (≈ 157 µM) | > 100 µg/mL | > 100 µg/mL | > 100 µg/mL | > 100 µg/mL | > 100 µg/mL | > 100 µg/mL | > 100 µg/mL | > 100 µg/mL | 50 µg/mL (≈ 157 µM) | 25 µg/mL (≈ 78.5 µM) | MIC (riemerella anatipestifer; [21]): 100 µg/mL (≈ 314 µM)
